Results: patent US8609708B2 (Human BioMolecular Research Institute, priority 2003, dated 2013)
Where two headings read alike, the source gives them in different places.

Experiments:
[1] = target: CYP2B6 relative to CYP2A6 (Homo sapiens (Human), UniProt P20813); assay: CYP2B6 Vivid blue substrate O-dealkylation inhibition; type: biochemical; conditions: recombinant CYP2B6 BACULOSOMES, pH 8, probe Vivid blue substrate (5 μM), O-dealkylation; human CYP2B6 versus human CYP2A6; read-out: Selectivity ratio (IC50 CYPX/IC50 CYP2A6) 2B6/2A6
CYP2B6 = CYP2B6 (Homo sapiens (Human), UniProt P20813); assay: as above; type: biochemical; conditions: insect cell microsomes expressing CYP2B6, 0.2M potassium phosphate buffer; mean of at least 3 determinations ± SD; read-out: IC50 ± SD 2B6
CYP2E1 = CYP2E1 (Homo sapiens (Human), UniProt P05181); assay: CYP2E1 Vivid blue substrate O-dealkylation inhibition; type: biochemical; conditions: insect cell microsomes expressing CYP2E1, 0.2M potassium phosphate buffer; mean of at least 3 determinations ± SD; read-out: IC50 ± SD 2E1
[2] = target: CYP2E1 relative to CYP2A6 (Homo sapiens (Human), UniProt P05181); assay: as above; type: biochemical
human CYP2A6 [3] = target: T1, human CYP2A6 (Homo sapiens (Human), UniProt P11509); assay: CYP2A6 mediated coumarin 7-hydroxylation inhibition
CYP2C9 = CYP2C9 (Homo sapiens (Human), UniProt P11712); assay: CYP2C9 Vivid blue substrate O-dealkylation inhibition; type: biochemical; conditions: insect cell microsomes expressing CYP2C9, 0.2M potassium phosphate buffer; mean of at least 3 determinations ± SD; read-out: IC50 ± SD 2C9
[4] = target: CYP2C9 relative to CYP2A6 (Homo sapiens (Human), UniProt P11712); assay: as above; type: biochemical; conditions: recombinant CYP2C9 BACULOSOMES, pH 8, probe Vivid blue substrate (10 μM), O-dealkylation; human CYP2C9 versus human CYP2A6; read-out: Selectivity ratio (IC50 CYPX/IC50 CYP2A6) 2C9/2A6
[5] = target: CYP3A4 relative to CYP2A6 (Homo sapiens (Human), UniProt P08684); assay: in vitro; conditions: human
Procedure: (§1) To gain insight into the selectivity of the synthetic compounds, nicotine, nicotine related alkaloids and nicotine metabolites for inhibition of other CYPs, we examined the major CYP present in human liver (i.e., CYP 3A4). […] A typical incubation mixture ([…] ), 0.5 mM NADP^+, 2.0 mM G6P, 1 U of G6P dehydrogenase, […] inhibitor was added last as to minimize interaction with the protein. After mixing on ice, the reaction was initiated by the addition of substrate and incubated at 37° C. with shaking in air. Organic extracts were injected onto a Hitachi L-7100 system equipped with a Hitachi L-7400 UV detector. Separations were done with an Altex Ultrasphere ODS (4.6 mm×250 mm, 5 μm) column. The analytes were eluted with an isocratic solvent system consisting of water/acetonitrile/methanol (30:10:60, v/v/v) at a flow rate of 1.0 mL/min. […] Quantification of substrate and metabolite was determined from peak areas of the chromatogram and comparison with standard curves. IC50 values were determined as described below.
(§2) To measure CYP3A4 activity, testosterone 6-hydroxylation was determined.

CYP3A4 = CYP3A4 (Homo sapiens (Human), UniProt P08684); assay: CYP3A4 inhibition assay (testosterone 6-hydroxylation); conditions: pH 7.5
Procedure: as §1, §2

CYP2C19 = CYP2C19 (Homo sapiens (Human), UniProt P33261); assay: CYP2C19 Vivid blue substrate O-dealkylation inhibition; type: biochemical; conditions: insect cell microsomes expressing CYP2C19, 0.2M potassium phosphate buffer; mean of at least 3 determinations ± SD; read-out: IC50 ± SD 2C19
[6] = target: CYP2C19 relative to CYP2A6 (Homo sapiens (Human), UniProt P33261); assay: as above; type: biochemical; conditions: recombinant CYP2C19 BACULOSOMES, pH 8, probe Vivid blue substrate (10 μM), O-dealkylation; human CYP2C19 versus human CYP2A6; read-out: Selectivity ratio (IC50 CYPX/IC50 CYP2A6) 2C19/2A6
[7] = target: CYP2D6 relative to CYP2A6 (Homo sapiens (Human), UniProt P10635); assay: CYP2D6 Vivid blue substrate O-dealkylation inhibition; type: biochemical; conditions: recombinant CYP2D6 BACULOSOMES, pH 8, probe Vivid blue substrate (10 μM), O-dealkylation; human CYP2D6 versus human CYP2A6; read-out: Selectivity ratio (IC50 CYPX/IC50 CYP2A6) 2D6/2A6
CYP2D6 = CYP2D6 (Homo sapiens (Human), UniProt P10635); assay: as above; type: biochemical; conditions: insect cell microsomes expressing CYP2D6, 0.2M potassium phosphate buffer; mean of at least 3 determinations ± SD; read-out: IC50 ± SD 2D6
human CYP2A6 [8] = target: T1, human CYP2A6; conditions: human, pH 7.5
mouse CYP2A5 = mouse CYP2A5 (Mus musculus (Mouse), UniProt P20852); assay: Inhibition of mouse CYP2A5; type: biochemical; conditions: read-out: IC50 mCYP2A5
CYP2A13 = CYP2A13 (Homo sapiens (Human), UniProt Q16696); assay: Inhibition of human CYP2A13; conditions: for inhibition at 1 µM: human
[9] = coumarin 7-hydroxylation, apparent Ki from IC50 by Cheng-Prusoff
[10] = read-out: IC50 ± SD 2A6, insect cell microsomes expressing CYP2A6, 0.1M Tris buffer, mean of at least 3 determinations ± SD

CYP3A4 relative to CYP2A6, sequence (P08684 whole entry): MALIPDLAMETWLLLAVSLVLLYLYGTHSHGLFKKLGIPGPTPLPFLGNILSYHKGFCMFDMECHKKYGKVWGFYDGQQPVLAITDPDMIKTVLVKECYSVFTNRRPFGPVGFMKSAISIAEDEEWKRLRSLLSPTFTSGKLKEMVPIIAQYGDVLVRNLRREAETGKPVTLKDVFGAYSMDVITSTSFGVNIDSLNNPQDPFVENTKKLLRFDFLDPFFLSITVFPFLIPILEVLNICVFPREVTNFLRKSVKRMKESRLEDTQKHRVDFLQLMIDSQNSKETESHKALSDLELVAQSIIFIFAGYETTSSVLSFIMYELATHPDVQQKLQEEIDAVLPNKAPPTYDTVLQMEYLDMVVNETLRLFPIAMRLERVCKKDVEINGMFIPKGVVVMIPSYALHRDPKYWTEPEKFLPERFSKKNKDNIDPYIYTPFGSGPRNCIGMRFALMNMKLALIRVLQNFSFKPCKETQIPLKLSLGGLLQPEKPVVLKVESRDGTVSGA
T1 sequence (P11509 whole entry): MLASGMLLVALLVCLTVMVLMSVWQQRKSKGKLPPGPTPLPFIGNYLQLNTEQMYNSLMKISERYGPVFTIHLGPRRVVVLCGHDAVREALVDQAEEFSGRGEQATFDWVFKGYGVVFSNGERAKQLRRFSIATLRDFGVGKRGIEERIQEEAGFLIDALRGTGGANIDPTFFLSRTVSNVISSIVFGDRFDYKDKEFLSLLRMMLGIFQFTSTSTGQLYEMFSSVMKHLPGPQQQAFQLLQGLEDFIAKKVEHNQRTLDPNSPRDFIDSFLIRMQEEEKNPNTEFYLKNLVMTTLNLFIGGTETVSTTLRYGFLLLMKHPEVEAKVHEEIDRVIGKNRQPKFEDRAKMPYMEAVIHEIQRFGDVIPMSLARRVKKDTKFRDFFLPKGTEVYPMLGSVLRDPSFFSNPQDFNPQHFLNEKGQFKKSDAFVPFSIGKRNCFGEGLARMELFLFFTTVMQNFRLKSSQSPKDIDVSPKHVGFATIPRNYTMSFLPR
CYP2A13, sequence (Q16696 whole entry): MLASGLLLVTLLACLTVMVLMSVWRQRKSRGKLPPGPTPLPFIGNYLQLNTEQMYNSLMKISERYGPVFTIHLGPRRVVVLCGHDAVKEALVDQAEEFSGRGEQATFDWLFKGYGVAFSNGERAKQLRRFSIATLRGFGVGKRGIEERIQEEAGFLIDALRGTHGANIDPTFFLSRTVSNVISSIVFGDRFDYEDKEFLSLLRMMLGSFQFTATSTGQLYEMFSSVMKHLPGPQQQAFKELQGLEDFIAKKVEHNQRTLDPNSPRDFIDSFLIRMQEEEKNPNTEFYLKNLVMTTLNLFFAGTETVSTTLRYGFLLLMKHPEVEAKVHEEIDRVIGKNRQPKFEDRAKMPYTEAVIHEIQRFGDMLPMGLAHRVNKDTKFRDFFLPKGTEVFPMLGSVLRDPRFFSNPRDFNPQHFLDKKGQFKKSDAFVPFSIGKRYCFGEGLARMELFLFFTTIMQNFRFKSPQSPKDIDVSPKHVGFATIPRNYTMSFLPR
mouse CYP2A5, sequence (P20852 whole entry): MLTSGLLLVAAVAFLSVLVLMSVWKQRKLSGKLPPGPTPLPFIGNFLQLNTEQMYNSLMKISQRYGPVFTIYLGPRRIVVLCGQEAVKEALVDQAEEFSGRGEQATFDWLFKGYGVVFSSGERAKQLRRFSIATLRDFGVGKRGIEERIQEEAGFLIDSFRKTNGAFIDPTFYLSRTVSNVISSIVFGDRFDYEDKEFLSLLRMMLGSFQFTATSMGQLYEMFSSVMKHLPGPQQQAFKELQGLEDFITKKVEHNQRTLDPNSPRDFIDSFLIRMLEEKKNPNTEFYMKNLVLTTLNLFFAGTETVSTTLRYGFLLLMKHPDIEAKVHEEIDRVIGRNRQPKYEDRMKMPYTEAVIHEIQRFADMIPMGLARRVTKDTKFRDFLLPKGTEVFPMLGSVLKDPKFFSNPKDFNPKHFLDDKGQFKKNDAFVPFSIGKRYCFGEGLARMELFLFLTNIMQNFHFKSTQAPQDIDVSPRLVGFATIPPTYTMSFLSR
CYP2C9 relative to CYP2A6, sequence (P11712 whole entry): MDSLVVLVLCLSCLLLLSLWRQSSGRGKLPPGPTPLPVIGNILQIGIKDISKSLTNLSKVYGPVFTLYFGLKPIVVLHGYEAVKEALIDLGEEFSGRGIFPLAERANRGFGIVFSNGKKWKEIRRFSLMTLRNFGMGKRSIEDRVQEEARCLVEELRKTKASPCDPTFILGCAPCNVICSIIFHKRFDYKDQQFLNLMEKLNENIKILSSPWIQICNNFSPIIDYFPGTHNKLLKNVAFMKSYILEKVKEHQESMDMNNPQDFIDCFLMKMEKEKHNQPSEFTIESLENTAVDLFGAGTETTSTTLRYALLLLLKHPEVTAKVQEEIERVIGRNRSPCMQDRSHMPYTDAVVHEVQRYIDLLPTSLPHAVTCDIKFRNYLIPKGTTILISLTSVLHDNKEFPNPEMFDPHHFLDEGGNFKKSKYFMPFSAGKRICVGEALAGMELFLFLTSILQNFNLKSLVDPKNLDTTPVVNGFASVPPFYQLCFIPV
CYP2C9, sequence (P11712 whole entry): as above
CYP3A4, sequence (P08684 whole entry): as the sequence (P08684 whole entry) above
CYP2E1, sequence (P05181 whole entry): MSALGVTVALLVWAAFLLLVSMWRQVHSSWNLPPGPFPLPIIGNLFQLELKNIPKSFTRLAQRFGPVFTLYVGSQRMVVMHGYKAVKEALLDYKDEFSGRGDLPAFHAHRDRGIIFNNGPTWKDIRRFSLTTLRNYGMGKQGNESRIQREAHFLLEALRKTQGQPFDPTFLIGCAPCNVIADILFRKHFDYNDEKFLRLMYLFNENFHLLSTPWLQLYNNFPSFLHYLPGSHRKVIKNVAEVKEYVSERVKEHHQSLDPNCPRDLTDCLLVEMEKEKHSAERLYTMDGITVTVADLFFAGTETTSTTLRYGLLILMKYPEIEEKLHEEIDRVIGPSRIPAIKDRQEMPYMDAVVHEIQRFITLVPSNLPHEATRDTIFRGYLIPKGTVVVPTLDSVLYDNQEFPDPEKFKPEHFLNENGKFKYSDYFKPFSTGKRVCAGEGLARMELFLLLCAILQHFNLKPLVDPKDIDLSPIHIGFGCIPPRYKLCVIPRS
CYP2E1 relative to CYP2A6, sequence (P05181 whole entry): as above
CYP2B6, sequence (P20813 whole entry): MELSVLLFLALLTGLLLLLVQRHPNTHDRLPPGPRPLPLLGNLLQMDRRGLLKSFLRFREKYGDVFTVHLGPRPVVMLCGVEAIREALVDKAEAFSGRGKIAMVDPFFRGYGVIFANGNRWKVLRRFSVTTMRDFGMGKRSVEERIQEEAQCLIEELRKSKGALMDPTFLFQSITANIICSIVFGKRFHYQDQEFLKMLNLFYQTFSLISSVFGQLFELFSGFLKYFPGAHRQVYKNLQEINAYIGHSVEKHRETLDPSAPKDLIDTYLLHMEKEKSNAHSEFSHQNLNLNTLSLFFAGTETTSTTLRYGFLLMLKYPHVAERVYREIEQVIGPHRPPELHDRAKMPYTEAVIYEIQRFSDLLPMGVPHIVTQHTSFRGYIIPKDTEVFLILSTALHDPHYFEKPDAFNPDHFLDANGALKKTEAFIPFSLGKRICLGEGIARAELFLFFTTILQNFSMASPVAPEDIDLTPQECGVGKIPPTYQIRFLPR
CYP2B6 relative to CYP2A6, sequence (P20813 whole entry): as above
CYP2D6 relative to CYP2A6, sequence (P10635 whole entry): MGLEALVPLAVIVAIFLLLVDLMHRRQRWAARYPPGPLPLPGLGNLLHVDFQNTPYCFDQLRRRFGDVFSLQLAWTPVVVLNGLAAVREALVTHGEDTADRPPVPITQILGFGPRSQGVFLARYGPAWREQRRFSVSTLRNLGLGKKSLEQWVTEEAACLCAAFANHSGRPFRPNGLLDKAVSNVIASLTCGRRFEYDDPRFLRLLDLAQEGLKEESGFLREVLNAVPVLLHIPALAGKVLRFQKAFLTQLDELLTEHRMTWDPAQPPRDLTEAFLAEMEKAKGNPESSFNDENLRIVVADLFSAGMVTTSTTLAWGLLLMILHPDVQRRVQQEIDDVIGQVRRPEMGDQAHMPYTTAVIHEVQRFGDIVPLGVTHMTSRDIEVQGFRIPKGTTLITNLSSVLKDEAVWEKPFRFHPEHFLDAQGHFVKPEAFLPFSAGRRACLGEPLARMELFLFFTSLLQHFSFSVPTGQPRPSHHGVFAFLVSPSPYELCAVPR
CYP2D6, sequence (P10635 whole entry): as above

How did the selectivity ratio at 40 min [1] turn out when `Nc1ccc(-c2cccnc2)s1` [Compound 57, 5-(Pyridin-3-yl)thiophen-2-amine] was run?
Its selectivity ratio at 40 min is 1.9.

What about the IC50 (CYP2B6) of the same compound?
The IC50 was 6800 ± 800 nM.

What about the IC50 (CYP2E1) of the same compound?
The IC50 was 31100 ± 5700 nM.

What about the selectivity ratio at 40 min ([2]; recombinant CYP2E1 BACULOSOMES, pH 8, probe Vivid blue substrate (10 μM), O-dealkylation, human CYP2E1 versus human CYP2A6, read-out: Selectivity ratio (IC50 CYPX/IC50 CYP2A6) 2E1/2A6) of the same compound?
Its selectivity ratio at 40 min is 8.9.

And the Ki (human CYP2A6 [3]; [9])?
Its Ki is 590 ± 50 nM.

What about the Ki (human CYP2A6 [3]; coumarin 7-hydroxylation, unit inferred) of the same compound?
Its Ki is 590 ± 50 nM.

What about the IC50 (human CYP2A6 [3]; [10]) of the same compound?
The IC50 was 3500 ± 300 nM.

And the IC50 (CYP2C9)?
Its IC50 is 2100 ± 200 nM.

And the selectivity ratio at 40 min [4]?
Its selectivity ratio at 40 min is 0.6.

And the selectivity ratio ([5]; pH 7.5, 3A4/2A6 selectivity ratio (IC50 CYPX/IC50 CYP2A6))?
The selectivity ratio was 2.

And the selectivity ratio ([5]; pH 7.5, Selectivity ratio (IC50 CYPX/IC50 CYP2A6) 3A4/2A6)?
Its selectivity ratio is 2.

And the IC50 (CYP3A4; read-out: IC50 ± SD 3A4, human liver microsomes, 0.05M potassium phosphate buffer, mean of at least 3 determinations ± SD)?
The IC50 was 6300 ± 1400 nM.

What about the IC50 (CYP2C19) of the same compound?
The IC50 was 3200 ± 200 nM.

And the selectivity ratio at 40 min [6]?
Its selectivity ratio at 40 min is 0.9.

What about the selectivity ratio at 40 min [7] of the same compound?
The selectivity ratio at 40 min was 4.1.

What about the IC50 (CYP2D6) of the same compound?
Its IC50 is 14400 ± 900 nM.

For `c1ccc(Cn2cnc(-c3cccnc3)c2)cc1` [Compound 60, 3-(1-benzyl-1H-imidazol-4-yl)pyridine], which selectivity ratio at 40 min [1] is on record?
Its selectivity ratio at 40 min is 4.

And the IC50 (CYP2B6)?
The IC50 was 5300 ± 900 nM.

And the IC50 (CYP2E1)?
Its IC50 is 580 ± 100 nM.

And the selectivity ratio at 40 min ([2]; human, pH 8)?
Its selectivity ratio at 40 min is 0.4.

And the Ki (human CYP2A6 [3]; [9])?
The Ki was 230 ± 30 nM.

And the IC50 (human CYP2A6 [3]; [10])?
The IC50 was 1400 ± 200 nM.

What about the IC50 (CYP2C9) of the same compound?
Its IC50 is 26900 ± 2900 nM.

What about the selectivity ratio at 40 min [4] of the same compound?
Its selectivity ratio at 40 min is 19.

What about the selectivity ratio at 30 min ([5]; pH 7.5) of the same compound?
Its selectivity ratio at 30 min is over 54.

What about the IC50 (CYP3A4; microsomes) of the same compound?
Its IC50 is 75100 ± 13900 nM.

What about the IC50 (CYP2C19) of the same compound?
Its IC50 is 12100 ± 600 nM.

And the selectivity ratio at 40 min [6]?
The selectivity ratio at 40 min was 9.

What about the selectivity ratio at 40 min [7] of the same compound?
The selectivity ratio at 40 min was 26.

What about the IC50 (CYP2D6) of the same compound?
Its IC50 is 36300 ± 4400 nM.

How did the IC50 (human CYP2A6 [8]) turn out when `Cc1cscc1-c1cccnc1` [TD-I-103] was run?
The IC50 was 1850 ± 500 nM.

And the IC50 (mouse CYP2A5)?
Its IC50 is 750 nM.

What does the source list for `Cc1ccsc1-c1cccnc1` [TD-II-025]?
IC50 (mouse CYP2A5): 300 nM; IC50 (CYP2A13): ~1000 nM; inhibition at 1 µM (CYP2A13): 51%

Which IC50 (mouse CYP2A5) does the source give for `NCc1ccc(-c2cccnc2)s1` [TD-II-039] here?
The IC50 was 500 nM.

With `CNCc1ccc(-c2cccnc2)s1` [TD-IV-073 30] as the compound, how does the IC50 (human CYP2A6 [3]; read-out: CYP2A6 IC50, coumarin 7-hydroxylation) read?
The IC50 was 1100 ± 130 nM.

What about the IC50 (mouse CYP2A5) of the same compound?
The IC50 was 900 nM.

What about the inhibition at 1 µM (CYP2A13) of the same compound?
Its inhibition at 1 µM is 17%.
